In US20260337190A1, “CRYSTAL FORM OF PYRIDINOPYRIMIDINONE COMPOUND, ACID SALT THEREOF, CRYSTAL FORM OF ACID SALT THEREOF, AND USE” (Wuhan Humanwell Innovative Drug Research and Development …, priority 2022, published 2026):
Counter-ions that a name gives are not always drawn.

Key:
[1] = Solid state stability (25 °C/60% RH and 40 °C/75% RH, one week; XRPD and HPLC); format: physicochemical; conditions: for solid state stability: open condition, one week, 25 °C/60% RH and 40 °C/75% RH
Description: The purity test, dynamic solubility test, and stability test in the assay were measured with an Agilent 1260 high-performance liquid chromatograph, and the salt formation molar ratio of ions was tested by ion chromatography, and the analytical conditions are shown in Table 5 and Table 6.

[2] = Dynamic solubility in water, SGF, FaSSIF and FeSSIF; format: physicochemical; conditions: for solubility in water, SGF, FaSSIF and FeSSIF: 10 mg/mL feed, 1, 4, 24 hours; for change in crystal form after solubility test: XRPD after solubility test
Description: Purified water was added to complete dissolution.

[3] = Human liver microsome stability; format: in vitro ADME; conditions: human liver microsomes, 30 min, 37 °C, NADPH; read-out: Remaining percentage of compound after incubation for 30 min
Description: The human liver microsome stability test was performed by incubating the compound and human liver microsomes in vitro. First, the compound to be tested was prepared into a 10 mM stock solution in DMSO solvent, and then the compound was diluted to 0.5 mM with acetonitrile. Human liver microsomes (Corning) were diluted with PBS into a microsome/buffer solution, and the solution was used to dilute 0.5 mM compound into a working solution, in which the concentration of the compound was 1.5 μM, and the concentration of human liver microsomes was 0.75 mg/mL. A deep-well plate was taken, 30 μL of the working solution was added per well, and then 15 μL of pre-heated 6 mM NADPH solution was added thereto to initiate a reaction, and the reaction was incubated at 37 °C At 0, 5, 15, 30, and 45 min of the incubation, 135 μL of acetonitrile was added to the corresponding wells to terminate the reaction. After the reaction was terminated with acetonitrile at the last time point of 45 min, the deep-well plate was vortexed for 10 min (600 rpm/min), and then centrifuged for 15 min. After centrifugation, the supernatant was collected, and added with purified water in a ratio of 1:1 to perform LC-MS/MS detection. A ratio of a peak area of compound to a peak area of internal standard at each time point was obtained, and the peak area ratios of the compound at 5, 15, 30, and 45 min were compared with the peak area ratio at 0 min to calculate the remaining percentage of the compound at each time point. T1/2 was calculated by using GraphPad 5 software.

[4] = Hygroscopicity by dynamic vapor sorption (DVS); format: physicochemical; conditions: 25 °C
Description: The dynamic vapor sorption (DVS) curve was collected on DVS IntrInsic from SMS (surface measurement systems). The relative humidity at 25 °C was corrected using the deliquescence points of LiCl, Mg(NO3)2, and KCl.
Starting from 0% RH or room humidity, the test collected the mass change percentage of the sample as the humidity changed (0% RH to 95% RH) under constant temperature conditions of 25 °C The results of the DVS test and the XRPD results of the samples before and after the DVS test are shown in FIG. 113 to FIG. 122.

[5] = Variable temperature XRPD (VT-XRPD) of crystal forms; format: physicochemical; conditions: for crystal form on heating to 150 °C: N2, heated to 150 °C and cooled; for crystal form on N2 purging: purged with N2 for 20 minutes; for crystal form on exposure to air: exposed to air after N2 purging/heating
Text: The XRPD pattern was collected on an X-ray powder diffraction analyzer produced by PANalytacal, and the scanning parameters are shown in Table 2.
The crystal form A of the compound of formula I of Example 2 was identified using variable temperature XRPD (VT-XRPD).

[6] = Influence of vacuum drying on crystal form A (XRPD, HPLC purity); format: physicochemical; conditions: vacuum drying 60 °C/80 °C, 4 hours
Description: In order to evaluate the influence of the drying conditions on the crystal form A of the compound of formula I, the changes of the sample before and after vacuum drying of the crystal form A of the compound of formula I under the condition of 60 °C/80 °C for 4 hours were respectively investigated. The XRPD, ^1H NMR, and HPLC purity of the dried sample were tested.

Row | HPLC results Purity (solid state stability) ([1]; 25 °C/60% RH/open, 1 week) | HPLC results Purity (solid state stability) ([1]; 40 °C/75% RH/open, 1 week) | HPLC results Purity (solid state stability) ([1]; Onset) | pH of filtrate ([2]; FaSSIF, 1 hour, 37 °C) | pH of filtrate ([2]; FaSSIF, 4 hours, 37 °C) | pH of filtrate ([2]; FaSSIF, 24 hours, 37 °C) | pH of filtrate ([2]; FeSSIF, 1 hour, 37 °C) | pH of filtrate ([2]; FeSSIF, 4 hours, 37 °C) | pH of filtrate ([2]; FeSSIF, 24 hours, 37 °C) | pH of filtrate ([2]; H2O, 1 hour, 37 °C) | pH of filtrate ([2]; H2O, 4 hours, 37 °C) | pH of filtrate ([2]; H2O, 24 hours, 37 °C) | pH of filtrate ([2]; SGF, 1 hour, 37 °C) | pH of filtrate ([2]; SGF, 4 hours, 37 °C) | pH of filtrate ([2]; SGF, 24 hours, 37 °C) | SMILES | further results
1 | 99.00 area % | 99.01 area % | 98.92 area % | – | – | – | – | – | – | – | – | – | – | – | – | Cc1nc(N[C@H](C)c2cccc(S(F)(F)(F)(F)F)c2)c2cn(C3(CF)CC3)c(=O)cc2n1 [Crystal form B citrate salt] | –
2 | – | – | – | 6.3 | 6.3 | 6.4 | 5.1 | 5.1 | 5.1 | 5.4 | 6.0 | 5.8 | 3.2 | 3.3 | 3.2 | Cc1nc(N[C@H](C)c2cccc(S(F)(F)(F)(F)F)c2)c2cn(C3(CF)CC3)c(=O)cc2n1 [Crystal form A of compound of formula I] | S: solubility ([2]; FeSSIF, 1 hour, 37 °C, 60 min): 2720 µg/mL
3 | – | – | – | 4.3 | 4.4 | 4.0 | 4.8 | 4.8 | 4.8 | 3.5 | 3.5 | 3.1 | 1.7 | 1.8 | 1.6 | Cc1nc(N[C@H](C)c2cccc(S(F)(F)(F)(F)F)c2)c2cn(C3(CF)CC3)c(=O)cc2n1 [Crystal form A of methanesulfonate salt] | S: solubility ([2]; FeSSIF, 1 hour, 37 °C, 60 min): 4040 µg/mL
4 | – | – | – | 4.5 | 3.9 | 3.6 | 4.8 | 4.6 | 4.5 | 3.5 | 3.5 | 3.3 | 2.5 | 2.6 | 2.4 | Cc1nc(N[C@H](C)c2cccc(S(F)(F)(F)(F)F)c2)c2cn(C3(CF)CC3)c(=O)cc2n1 [Crystal form B of citrate salt] | –
5 | – | – | – | 4.5 | 4.2 | 3.7 | 4.8 | 4.8 | 4.7 | 2.9 | 3.1 | 2.8 | 1.6 | 1.5 | 1.5 | Cc1nc(N[C@H](C)c2cccc(S(F)(F)(F)(F)F)c2)c2cn(C3(CF)CC3)c(=O)cc2n1 [Crystal form A of ethanesulfonate salt] | S: solubility ([2]; FaSSIF, 4 hours, 37 °C, 240 min): 1610 µg/mL; S: solubility ([2]; FeSSIF, 4 hours, 37 °C, 240 min): 3620 µg/mL; S: solubility ([2]; H2O, 1 hour, 37 °C, 60 min): 10060 µg/mL; S: solubility ([2]; H2O, 4 hours, 37 °C, 240 min): 9810 µg/mL; S: solubility ([2]; H2O, 24 hours, 37 °C, 1440 min): 10080 µg/mL; S: solubility ([2]; SGF, 4 hours, 37 °C, 240 min): 10130 µg/mL; S: solubility ([2]; SGF, 24 hours, 37 °C, 1440 min): 10110 µg/mL
6 | 98.67 area % | 98.70 area % | 98.67 area % | – | – | – | – | – | – | – | – | – | – | – | – | Cc1nc(N[C@H](C)c2cccc(S(F)(F)(F)(F)F)c2)c2cn(C3(CF)CC3)c(=O)cc2n1 [Crystal form A fumarate salt] | –
7 | 99.15 area % | 99.29 area % | 99.10 area % | – | – | – | – | – | – | – | – | – | – | – | – | Cc1nc(N[C@H](C)c2cccc(S(F)(F)(F)(F)F)c2)c2cn(C3(CF)CC3)c(=O)cc2n1 [Crystal form A ethanesulfonate salt] | –
8 | – | – | – | 4.8 | 4.6 | 4.3 | 4.6 | 4.8 | 4.7 | 4.2 | 4.2 | 4.1 | 1.8 | 2.0 | 1.7 | Cc1nc(N[C@H](C)c2cccc(S(F)(F)(F)(F)F)c2)c2cn(C3(CF)CC3)c(=O)cc2n1 [Crystal form A of fumarate salt] | solubility at 1 h ([2]; fessif, 1 hour, 37 °C, read-out: S: solubility): 3510 µg/mL; solubility at 4 h ([2]; fessif, 4 hours, 37 °C, read-out: S: solubility): 2390 µg/mL; solubility at 24 h ([2]; fessif, 24 hours, 37 °C, read-out: S: solubility): 2180 µg/mL
9 | – | – | – | – | – | – | – | – | – | – | – | – | – | – | – | Cc1nc(N[C@H](C)c2cccc(C(F)(F)F)c2C)c2cn(C3(CF)CC3)c(=O)cc2n1 [Control compound 1, reference compound] | remaining at 0.5 h [3]: 70.2%
10 | – | – | – | – | – | – | – | – | – | – | – | – | – | – | – | Cc1nc(N[C@H](C)c2cccc(S(F)(F)(F)(F)F)c2)c2cn(C3(CF)CC3)c(=O)cc2n1 [crystal form A of the methanesulfonate salt of the compound ] | solubility in water, SGF, FaSSIF and FeSSIF ([2]; 37 °C): high solubility; hygroscopicity ([4]; 0% RH to 95% RH): slightly hygroscopic; solid state stability [1]: good stability; crystal form on heating to 150 °C [5]: no change in the crystal form was observed
11 | – | – | – | – | – | – | – | – | – | – | – | – | – | – | – | Cc1nc(N[C@H](C)c2cccc(S(F)(F)(F)(F)F)c2)c2cn(C3(CF)CC3)c(=O)cc2n1 [crystal form A of the compound of formula I] | solubility in water, SGF, FaSSIF and FeSSIF ([2]; 37 °C): high solubility; change in crystal form after solubility test [2]: no change in crystal form is observed; moisture behaviour higher than 10% RH [4]: absorb more moisture and gain more weight with the increase of humidity; moisture behaviour lower than 10% RH [4]: rapidly dehydrate; solid state stability [1]: good stability; change in purity before and after drying (HPLC) [6]: no significant change in purity was observed; crystal form after vacuum drying ([6]; exposure to 19 °C/27% RH 10-15 min): still the crystal form A of the compound of formula I; crystal form on N2 purging [5]: transformed into a new crystal form B
12 | – | – | – | – | – | – | – | – | – | – | – | – | – | – | – | Cc1nc(N[C@H](C)c2cccc(S(F)(F)(F)(F)F)c2)c2cn(C3(CF)CC3)c(=O)cc2n1 [crystal form A of the fumarate salt of the compound of formu] | solubility in water, SGF, FaSSIF and FeSSIF ([2]; 37 °C): high solubility; change in crystal form after solubility test [2]: no change in crystal form is observed; moisture behaviour higher than 10% RH [4]: absorb more moisture and gain more weight with the increase of humidity; moisture behaviour lower than 10% RH [4]: rapidly dehydrate; solid state stability [1]: good stability; crystal form on heating to 150 °C [5]: No change in the crystal form was observed; crystal form on exposure to air [5]: transcrystallized back to the crystal form A of the fumarate salt; crystal form on N2 purging [5]: a peak shift was observed
13 | – | – | – | – | – | – | – | – | – | – | – | – | – | – | – | Cc1nc(N[C@H](C)c2cccc(S(F)(F)(F)(F)F)c2)c2cn(C3(CF)CC3)c(=O)cc2n1 [crystal form B of the compound of formula I] | crystal form on exposure to air [5]: transcrystallized back to the crystal form A; crystal form on heating to 100 °C and cooling to 30 °C ([5]; under N2, 100 °C, cooled to 30 °C): No crystal change was observed
14 | 97.13 area % | 97.14 area % | 97.06 area % | – | – | – | – | – | – | – | – | – | – | – | – | Cc1nc(N[C@H](C)c2cccc(S(F)(F)(F)(F)F)c2)c2cn(C3(CF)CC3)c(=O)cc2n1 [Crystal form A compound formula I] | –
15 | 99.21 area % | 99.26 area % | 99.18 area % | – | – | – | – | – | – | – | – | – | – | – | – | Cc1nc(N[C@H](C)c2cccc(S(F)(F)(F)(F)F)c2)c2cn(C3(CF)CC3)c(=O)cc2n1 [Crystal form A methanesulfonate salt] | –
